ChEMBL document CHEMBL2010766, “Bivalent Ligands for the Serotonin 5-HT3 Receptor” (ACS Med Chem Lett, 2011)
pKi: −log10 of the molar value.

Biological target: T1, 5-hydroxytryptamine receptor 3A (Rattus norvegicus, UniProt P35563)
T1 sequence (P35563 whole entry): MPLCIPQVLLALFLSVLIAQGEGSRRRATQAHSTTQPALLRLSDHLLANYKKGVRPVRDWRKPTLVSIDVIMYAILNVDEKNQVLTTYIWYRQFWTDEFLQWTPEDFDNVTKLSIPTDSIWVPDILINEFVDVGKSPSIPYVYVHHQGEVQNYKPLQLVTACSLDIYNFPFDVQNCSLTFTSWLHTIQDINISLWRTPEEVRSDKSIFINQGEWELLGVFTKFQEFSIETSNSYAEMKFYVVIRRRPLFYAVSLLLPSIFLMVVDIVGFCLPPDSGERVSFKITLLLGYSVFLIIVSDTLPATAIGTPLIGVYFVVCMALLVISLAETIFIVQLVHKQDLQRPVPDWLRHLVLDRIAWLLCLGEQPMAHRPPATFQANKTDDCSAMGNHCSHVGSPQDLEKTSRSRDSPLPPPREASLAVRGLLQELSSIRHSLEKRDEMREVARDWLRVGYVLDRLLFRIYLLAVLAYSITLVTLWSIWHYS
Assay: Displacement of [3H]granisetron from 5HT3 receptor in Wistar rat cortical membranes by liquid scintillation spectrometry
Type: cell membranes, Membrane

pKi | SMILES
7.55 | Cc1c(N2CCN(C)CC2)nc2ccccc2c1C(=O)NCCCCCCNC(=O)c1c(C)c(N2CCN(C)CC2)nc2ccccc12
8.57 | Cc1c(N2CCN(C)CC2)nc2ccccc2c1C(=O)NCCCCCCCNC(=O)c1c(C)c(N2CCN(C)CC2)nc2ccccc12
7.17 | Cc1c(N2CCN(C)CC2)nc2ccccc2c1C(=O)NCCCCCCCCNC(=O)c1c(C)c(N2CCN(C)CC2)nc2ccccc12
8.11 | Cc1c(N2CCN(C)CC2)nc2ccccc2c1C(=O)NCCOCCOCCNC(=O)c1c(C)c(N2CCN(C)CC2)nc2ccccc12
7.57 | Cc1c(N2CCN(C)CC2)nc2ccccc2c1C(=O)NCCOCCOCCOCCOCCOCCOCCOCCNC(=O)c1c(C)c(N2CCN(C)CC2)nc2ccccc12
7.82 | Cc1c(N2CCN(C)CC2)nc2ccccc2c1C(=O)NCCOCCOCCOCCOCCOCCOCCOCCOCCOCCNC(=O)c1c(C)c(N2CCN(C)CC2)nc2ccccc12
7.15 | Cc1c(N2CCN(C)CC2)nc2ccccc2c1C(=O)NCCCCCCNc1c2c(nc3ccccc13)CCCC2
7.16 | Cc1c(N2CCN(C)CC2)nc2ccccc2c1C(=O)NCCCCCCCCNc1c2c(nc3ccccc13)CCCC2
7.59 | Cc1c(N2CCN(C)CC2)nc2ccccc2c1C(=O)NCCCCCCCNC(=O)NC[13C](=O)O
6.85 | Cc1c(N2CCN(C)CC2)nc2ccccc2c1C(=O)NCCOCCOCCNC(=O)NC[13C](=O)O
6.75 | Cc1c(N2CCN(C)CC2)nc2ccccc2c1C(=O)NCCCCCCNC(=O)OC(C)(C)C
7.74 | Cc1c(N2CCN(C)CC2)nc2ccccc2c1C(=O)NCCCCCCCNC(=O)OC(C)(C)C
6.90 | Cc1c(N2CCN(C)CC2)nc2ccccc2c1C(=O)NCCCCCCCCNC(=O)OC(C)(C)C
6.88 | Cc1c(N2CCN(C)CC2)nc2ccccc2c1C(=O)NCCOCCOCCNC(=O)OC(C)(C)C

SMILES | pKi
Cc1c(N2CCN(C)CC2)nc2ccccc2c1C(=O)NCCCCCCCNc1c2c(nc3ccccc13)CCCC2 | 8.25
Cc1c(N2CCN(C)CC2)nc2ccccc2c1C(=O)NCCOCCOCCOCCOCCOCCOCCOCCNC(=O)NC[13C](=O)O | 6.97
Cc1c(N2CCN(C)CC2)nc2ccccc2c1C(=O)NCCOCCOCCOCCOCCOCCOCCOCCOCCOCCNC(=O)NC[13C](=O)O | 6.81
Cc1c(N2CCN(C)CC2)nc2ccccc2c1C(=O)NCCOCCOCCOCCOCCOCCOCCOCCNC(=O)OC(C)(C)C | 7.05
Cc1c(N2CCN(C)CC2)nc2ccccc2c1C(=O)NCCOCCOCCOCCOCCOCCOCCOCCOCCOCCNC(=O)OC(C)(C)C | 7.15
